The source of these data is patent US9006235B2, “Inhibitors of human immunodeficiency virus replication” (priority 2012, dated 2015).

SMILES strings stand for the structures. Like-named read-outs stand apart in the source and are kept apart here. Where only a bound is given, the exact number is not on record here.

This test deals with recombinant NL-Rluc virus. The test can be described thus: Inhibition of HIV replication (NL-Rluc virus, luciferase readout in MT-2 cells). The format is cell-based. Particulars: Human immunodeficiency virus 1, MT2, 120 h.

Consider `Cc1ccc(CCNc2cc3nc(C)c([C@H](OC(C)(C)C)C(=O)O)c(-c4cc(F)c5c(c4C)CCCO5)n3n2)cc1` [Example 40, (2S)-2-(tert-butoxy)-2-(7-(8-fluoro-5-methylchroman-6-yl)-5-methyl-2-((4-methylphenethyl)amino)pyrazolo[1,5-a]pyrimidin-6-yl)acetic acid], for which the EC50 (read-out: Activity) was less than 0.1 µM.
Same read-out and setting: the same measure for `Cc1nc2cc(NC(=O)c3cccc(C#N)c3)nn2c(-c2cc(F)c3c(c2C)CCCO3)c1[C@H](OC(C)(C)C)C(=O)O` [Example 8, (2S)-2-tert-butoxy-2-(2-(3-cyanobenzamido)-7-(8-fluoro-5-methylchroman-6-yl)-5-methylpyrazolo[1,5-a]pyrimidin-6-yl)acetic acid]: 0.1 to 1 µM; for `Cc1nc2cc(N3CCCC3)nn2c(-c2cc(F)c3c(c2C)CCCO3)c1[C@H](OC(C)(C)C)C(=O)O` [Example 51, (2S)-2-(tert-butoxy)-2-(7-(8-fluoro-5-methylchroman-6-yl)-5-methyl-2-(pyrrolidin-1-yl)pyrazolo[1,5-a]pyrimidin-6-yl)acetic acid]: 0.1 to 1 µM.
Still for that read-out and setting: under `Cc1nc2cc(NCCC(C)C)nn2c(-c2cc(F)c3c(c2C)CCCO3)c1[C@H](OC(C)(C)C)C(=O)O` [Example 43, (2S)-2-(tert-butoxy)-2-(7-(8-fluoro-5-methylchroman-6-yl)-2-(isopentylamino)-5-methylpyrazolo[1,5-a]pyrimidin-6-yl)acetic acid] stands less than 0.1 µM.
Turning to `Cc1nc2cc(NC(=O)CCCc3ccccc3)nn2c(-c2cc(F)c3c(c2C)CCCO3)c1[C@H](OC(C)(C)C)C(=O)O` [Example 12, (2S)-2-tert-butoxy-2-(7-(8-fluoro-5-methylchroman-6-yl)-5-methyl-2-(4-phenylbutanamido)pyrazolo[1,5-a]pyrimidin-6-yl)acetic acid], the EC50 worked out at 0.05 µM. The EC50 (read-out: Activity) is less than 0.1 µM.
Regarding `Cc1nc2cc(N(C)CCCC3CCCC3)nn2c(-c2cc(F)c3c(c2C)CCCO3)c1[C@H](OC(C)(C)C)C(=O)O` [Example 52, (2S)-2-(tert-butoxy)-2-(2-((3-cyclopentylpropyl)(methyl)amino)-7-(8-fluoro-5-methylchroman-6-yl)-5-methylpyrazolo[1,5-a]pyrimidin-6-yl)acetic acid], for the setting “read-out: Activity”, the EC50 was less than 0.1 µM.
Same read-out and setting: the same measure for `Cc1nc2cc(NC(=O)c3cccc(F)c3)nn2c(-c2cc(F)c3c(c2C)CCCO3)c1[C@H](OC(C)(C)C)C(=O)O` [Example 5, (2S)-2-tert-butoxy-2-(7-(8-fluoro-5-methylchroman-6-yl)-2-(3-fluorobenzamido)-5-methylpyrazolo[1,5-a]pyrimidin-6-yl)acetic acid]: less than 0.1 µM.
On to `Cc1nc2cc(NC(=O)Cc3ccccc3)nn2c(-c2cc(F)c3c(c2C)CCCO3)c1[C@H](OC(C)(C)C)C(=O)O` [Example 4, (2S)-2-tert-butoxy-2-(7-(8-fluoro-5-methylchroman-6-yl)-5-methyl-2-(2-phenylacetamido)pyrazolo[1,5-a]pyrimidin-6-yl)acetic acid], for which the EC50 was 0.12 µM. Further, under “read-out: Activity”, the EC50 fell in the range of 0.1 to 1 µM.
In the case of `Cc1nc2cc(NC(=O)CCC3CCCCC3)nn2c(-c2cc(F)c3c(c2C)CCCO3)c1[C@H](OC(C)(C)C)C(=O)O` [Example 28, (2S)-2-tert-butoxy-2-(2-(3-cyclohexylpropanamido)-7-(8-fluoro-5-methylchroman-6-yl)-5-methylpyrazolo[1,5-a]pyrimidin-6-yl)acetic acid], the EC50 (read-out: Activity) is less than 0.1 µM.
Consider `Cc1nc2cc(NC(=O)OCc3ccccc3)nn2c(-c2cc(F)c3c(c2C)CCCO3)c1[C@H](OC(C)(C)C)C(=O)O` [Example 33, (2S)-2-(2-(((benzyloxy)carbonyl)amino)-7-(8-fluoro-5-methylchroman-6-yl)-5-methylpyrazolo[1,5-a]pyrimidin-6-yl)-2-(tert-butoxy)acetic acid], for which the EC50 is 0.06 µM. Also, the EC50 (read-out: Activity) was less than 0.1 µM.
Consider `Cc1nc2cc(NCCCC3CCCC3)nn2c(-c2cc(F)c3c(c2C)CCCO3)c1[C@H](OC(C)(C)C)C(=O)O` [Example 42, (2S)-2-(tert-butoxy)-2-(2-((3-cyclopentylpropyl)amino)-7-(8-fluoro-5-methylchroman-6-yl)-5-methylpyrazolo[1,5-a]pyrimidin-6-yl)acetic acid], for which, where the note is “read-out: Activity”, the EC50 was less than 0.1 µM.
Still for that read-out and setting: under `CCCCCC(=O)Nc1cc2nc(C)c([C@H](OC(C)(C)C)C(=O)O)c(-c3cc(F)c4c(c3C)CCCO4)n2n1` [Example 17, (2S)-2-tert-butoxy-2-(7-(8-fluoro-5-methylchroman-6-yl)-2-hexanamido-5-methylpyrazolo[1,5-a]pyrimidin-6-yl)acetic acid] stands less than 0.1 µM.
Still for that read-out and setting: under `COc1cccc(C(=O)Nc2cc3nc(C)c([C@H](OC(C)(C)C)C(=O)O)c(-c4cc(F)c5c(c4C)CCCO5)n3n2)c1` [Example 6, (2S)-2-tert-butoxy-2-(7-(8-fluoro-5-methylchroman-6-yl)-2-(3-methoxybenzamido)-5-methylpyrazolo[1,5-a]pyrimidin-6-yl)acetic acid] stands less than 0.1 µM.
On to `Cc1nc2cc(NCc3ccccc3)nn2c(-c2cc(F)c3c(c2C)CCCO3)c1[C@H](OC(C)(C)C)C(=O)O` [Example 38, (2S)-2-(2-(benzylamino)-7-(8-fluoro-5-methylchroman-6-yl)-5-methylpyrazolo[1,5-a]pyrimidin-6-yl)-2-(tert-butoxy)acetic acid], for which the EC50 was determined as 0.3 µM. For the same compound, the EC50 (read-out: Activity) is 0.1 to 1 µM.
Regarding `Cc1nc2cc(NC(=O)CC3CCCCC3)nn2c(-c2cc(F)c3c(c2C)CCCO3)c1[C@H](OC(C)(C)C)C(=O)O` [Example 25, (2S)-2-tert-butoxy-2-(2-(2-cyclohexylacetamido)-7-(8-fluoro-5-methylchroman-6-yl)-5-methylpyrazolo[1,5-a]pyrimidin-6-yl)acetic acid], the EC50 (read-out: Activity) is less than 0.1 µM.
The same measure, in the same setting: under `CCOc1ccccc1C(=O)Nc1cc2nc(C)c([C@H](OC(C)(C)C)C(=O)O)c(-c3cc(F)c4c(c3C)CCCO4)n2n1` [Example 19, (2S)-2-tert-butoxy-2-(2-(2-ethoxybenzamido)-7-(8-fluoro-5-methylchroman-6-yl)-5-methylpyrazolo[1,5-a]pyrimidin-6-yl)acetic acid] stands less than 0.1 µM; under `Cc1ccc(C(=O)Nc2cc3nc(C)c([C@H](OC(C)(C)C)C(=O)O)c(-c4cc(F)c5c(c4C)CCCO5)n3n2)cc1C` [Example 10, (2S)-2-tert-butoxy-2-(2-(3,4-dimethylbenzamido)-7-(8-fluoro-5-methylchroman-6-yl)-5-methylpyrazolo[1,5-a]pyrimidin-6-yl)acetic acid], less than 0.1 µM; under `Cc1nc2cc(NC(=O)OCC(C)(C)C)nn2c(-c2cc(F)c3c(c2C)CCCO3)c1[C@H](OC(C)(C)C)C(=O)O` [Example 35, (2S)-2-(tert-butoxy)-2-(7-(8-fluoro-5-methylchroman-6-yl)-5-methyl-2-(((neopentyloxy)carbonyl)amino)pyrazolo[1,5-a]pyrimidin-6-yl)acetic acid], less than 0.1 µM.
On the same count and under the same terms, the same measure for `Cc1nc2cc(NC(=O)C(Oc3ccccc3)C(C)C)nn2c(-c2cc(F)c3c(c2C)CCCO3)c1[C@H](OC(C)(C)C)C(=O)O` (mixture of isomers) [Example 24, (2S)-2-tert-butoxy-2-(7-(8-fluoro-5-methylchroman-6-yl)-5-methyl-2-(3-methyl-2-phenoxybutanamido)pyrazolo[1,5-a]pyrimidin-6-yl)acetic acid]: less than 0.1 µM; for `Cc1nc2cc(NC(=O)c3cccc(OCc4ccccc4)c3)nn2c(-c2cc(F)c3c(c2C)CCCO3)c1[C@H](OC(C)(C)C)C(=O)O` [Example 7, (2S)-2-(2-(3-(benzyloxy)benzamido)-7-(8-fluoro-5-methylchroman-6-yl)-5-methylpyrazolo[1,5-a]pyrimidin-6-yl)-2-tert-butoxyacetic acid]: less than 0.1 µM.
`Cc1nc2cc(NCCCc3ccccc3)nn2c(-c2cc(F)c3c(c2C)CCCO3)c1[C@H](OC(C)(C)C)C(=O)O` [Example 41, (2S)-2-(tert-butoxy)-2-(7-(8-fluoro-5-methylchroman-6-yl)-5-methyl-2-((3-phenylpropyl)amino)pyrazolo[1,5-a]pyrimidin-6-yl)acetic acid]: the EC50 was 0.05 µM. The EC50 (read-out: Activity) was less than 0.1 µM.
For `Cc1nc2cc(NC(=O)c3ccc4c(c3)-c3ccccc3C4=O)nn2c(-c2cc(F)c3c(c2C)CCCO3)c1[C@H](OC(C)(C)C)C(=O)O` [Example 18, (2S)-2-tert-butoxy-2-(7-(8-fluoro-5-methylchroman-6-yl)-5-methyl-2-(9-oxo-9H-fluorene-3-carboxamido)pyrazolo[1,5-a]pyrimidin-6-yl)acetic acid], the EC50 (read-out: Activity) is 0.1 to 1 µM.
Same read-out and setting: under `Cc1nc2cc(NC(=O)CCC3CCCC3)nn2c(-c2cc(F)c3c(c2C)CCCO3)c1[C@H](OC(C)(C)C)C(=O)O` [Example 2, (2S)-2-tert-butoxy-2-(2-(3-cyclopentylpropanamido)-7-(8-fluoro-5-methylchroman-6-yl)-5-methylpyrazolo[1,5-a]pyrimidin-6-yl)acetic acid] stands less than 0.1 µM.
On the same count and under the same terms, under `CCOc1cccc(C(=O)Nc2cc3nc(C)c([C@H](OC(C)(C)C)C(=O)O)c(-c4cc(F)c5c(c4C)CCCO5)n3n2)c1` [Example 14, (2S)-2-tert-butoxy-2-(2-(3-ethoxybenzamido)-7-(8-fluoro-5-methylchroman-6-yl)-5-methylpyrazolo[1,5-a]pyrimidin-6-yl)acetic acid] stands less than 0.1 µM.
As for `Cc1nc2cc(N(CCC(C)(C)C)CCC(C)(C)C)nn2c(-c2cc(F)c3c(c2C)CCCO3)c1[C@H](OC(C)(C)C)C(=O)O` [Example 46, (2S)-2-(2-(bis(3,3-dimethylbutyl)amino)-7-(8-fluoro-5-methylchroman-6-yl)-5-methylpyrazolo[1,5-a]pyrimidin-6-yl)-2-(tert-butoxy)acetic acid], the EC50 is 2.57 µM. The EC50 (read-out: Activity) was more than 1 µM.
Take `Cc1nc2cc(NC(=O)c3ccc4c(c3)OC(F)(F)O4)nn2c(-c2cc(F)c3c(c2C)CCCO3)c1[C@H](OC(C)(C)C)C(=O)O` [Example 22, (2S)-2-tert-butoxy-2-(2-(2,2-difluorobenzo[d][1,3]-dioxole-5-carboxamido)-7-(8-fluoro-5-methylchroman-6-yl)-5-methylpyrazolo[1,5-a]pyrimidin-6-yl)acetic acid]: the EC50 (read-out: Activity) lay in the range of 0.1 to 1 µM.
